Read-outs that look alike come from different tables or passages of the source.
What was measured:
Botrytis cinerea = experiment: Fungicidal efficacy trial (% control) on Botrytis cinerea, synergy by Colby's equation; type: cell-based; settings: concentration 0.01 mg/L, observed efficacy
From the text: [table] Colby's equation was used to determine the fungicidal effects expected from the mixtures. The following equation was used to calculate the expected activity of mixtures containing two active ingredients, A and B: Expected=A+B−(A×B/100) • A=observed efficacy of active component A at the same concentration as used in the mixture; • B=observed efficacy of active component B at the same concentration as used in the mixture.

[1] = test system: spores of Botrytis cinerea; experiment: EC50 for in vitro inhibition of 50% of fungal population of spores of Botrytis cinerea; type: cell-based
Description: As used herein, according to the Fungicide Resistance Action Committee (FRAC), ‘EC50’ is defined as the fungicide dose that inhibits growth by 50% when compared with a nonamended control.
The EC50 values were evaluated to determine a lower concentration of the fungicides and the combination to achieve in vitro inhibition of 50% of fungal population of spores of Botrytis cinerea.

SMILES | % control (Botrytis cinerea) | EC50 [1] | EC50 ([1]; read-out: EC50)
COc1ccnc(C(=O)N[C@H]2COC(=O)[C@H](Cc3ccccc3)[C@@H](OC(=O)C(C)C)[C@H](C)OC2=O)c1OCOC(=O)C(C)C [Fenpicoxamide] | 15.45% | 0.46 µg/mL | 
O=C1C2CC=CCC2C(=O)N1SC(Cl)(Cl)Cl (stereo not shown) [Captan] | 11.54% |  | 0.15 µg/mL
